Source: patent publication US10865316B2 (Clemson University Research Foundation, priority 2015, dated 2020)
Entries after “also recorded” stand apart in the source; their conditions may differ.

Assays:
[1] = tested on: oyster hemocytes; type: cell-based
[2] = tested on: 3-day old cyprid; conditions: in vivo

## pGlu Gly Val Cys Cys Gly Tyr Lys Leu Cys His Hyp Cys-NH2 [SEQ ID NO: 13]
[1]
  apoptosis in oyster hemocytes: cause apoptosis
[2]
  cyprid settlement: inhibited cyprid settlement; also recorded: promoted settlement
